Experiments:
Test in all cases: relative viability (nuclei count vs DMSO), 5 days (fraction); higher = more cells survive
Tosedostat + Palbociclib = compound: CC(C)C[C@@H](C(=O)N[C@H](C(=O)OC1CCCC1)c1ccccc1)[C@H](O)C(=O)NO [Tosedostat] + CC(=O)c1c(C)c2cnc(Nc3ccc(N4CCNCC4)cn3)nc2n(C2CCCC2)c1=O [Palbociclib] (partner 0.5 µM)
Procedure, shortened: (§1)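 Relative viability is defined as nuclei in treated wells over nuclei in vehicle wells. Duplicate plates were run and medians reported. Lung cancer cell lines in 1536-well plates were dosed by pin tool one day after seeding, with one drug or with a fixed anchor-drug dose plus five library-drug doses (not always all listed) in √10 steps, and nuclei were counted after 5 days.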

[1] = compound: CC1=NN=C(O1)C2=NN=C(C=C2)N3CCC(CC3)OC4=C(C=CC(=C4)F)Cl + CC(=O)c1c(C)c2cnc(Nc3ccc(N4CCNCC4)cn3)nc2n(C2CCCC2)c1=O [Palbociclib] (partner 0.5 µM)
Procedure, shortened: as §1

[2] = compound: CC1=NN=C(O1)C2=NN=C(C=C2)N3CCC(CC3)OC4=C(C=CC(=C4)F)Cl + CS(=O)(=O)N1CCN(Cc2cc3nc(-c4cccc5[nH]ncc45)nc(N4CCOCC4)c3s2)CC1 [Pictilisib] (partner 1 µM)
Procedure, shortened: as §1

[3] = compound: CC1=NN=C(O1)C2=NN=C(C=C2)N3CCC(CC3)OC4=C(C=CC(=C4)F)Cl + O=C(c1cc(Cc2n[nH]c(=O)c3ccccc23)ccc1F)N1CCN(C(=O)C2CC2)CC1 [Olaparib] (partner 8 µM)
Procedure, shortened: as §1

NCI-H23
relative viability (Tosedostat + Palbociclib; first compound 0.02 µM): 0.509 | relative viability (Tosedostat + Palbociclib; first compound 0.06325 µM): 0.494 | relative viability (Tosedostat + Palbociclib; first compound 0.2 µM): 0.521 | relative viability (Tosedostat + Palbociclib; first compound 0.6325 µM): 0.37 | relative viability (Tosedostat + Palbociclib; first compound 2 µM): 0.428 | relative viability ([1]; first compound 0.253 µM): 0.44 | relative viability ([1]; first compound 0.8 µM): 0.442 | relative viability ([1]; first compound 2.53 µM): 0.466 | relative viability ([1]; first compound 8 µM): 0.454 | relative viability ([2]; first compound 0.253 µM): 0.466 | relative viability ([2]; first compound 2.53 µM): 0.527 | relative viability ([2]; first compound 8 µM): 0.463 | relative viability ([3]; first compound 0.253 µM): 0.164 | relative viability ([3]; first compound 0.8 µM): 0.272 | relative viability ([3]; first compound 2.53 µM): 0.327 | relative viability ([3]; first compound 8 µM): 0.302

NCI-H322M
relative viability (Tosedostat + Palbociclib; first compound 0.02 µM): 0.466 | relative viability (Tosedostat + Palbociclib; first compound 0.06325 µM): 0.473 | relative viability (Tosedostat + Palbociclib; first compound 0.2 µM): 0.459 | relative viability (Tosedostat + Palbociclib; first compound 0.6325 µM): 0.524 | relative viability (Tosedostat + Palbociclib; first compound 2 µM): 0.455 | relative viability ([1]; first compound 0.253 µM): 0.471 | relative viability ([1]; first compound 0.8 µM): 0.509 | relative viability ([1]; first compound 2.53 µM): 0.469 | relative viability ([1]; first compound 8 µM): 0.492 | relative viability ([2]; first compound 0.253 µM): 0.511 | relative viability ([2]; first compound 0.8 µM): 0.486 | relative viability ([2]; first compound 2.53 µM): 0.482 | relative viability ([2]; first compound 8 µM): 0.451 | relative viability ([3]; first compound 0.253 µM): 0.746 | relative viability ([3]; first compound 0.8 µM): 0.724 | relative viability ([3]; first compound 2.53 µM): 0.817 | relative viability ([3]; first compound 8 µM): 0.732

NCI-H358
relative viability (Tosedostat + Palbociclib; first compound 0.02 µM): 0.141 | relative viability (Tosedostat + Palbociclib; first compound 0.06325 µM): 0.134 | relative viability (Tosedostat + Palbociclib; first compound 0.2 µM): 0.131 | relative viability (Tosedostat + Palbociclib; first compound 0.6325 µM): 0.137 | relative viability (Tosedostat + Palbociclib; first compound 2 µM): 0.136 | relative viability ([1]; first compound 0.253 µM): 0.137 | relative viability ([1]; first compound 0.8 µM): 0.12 | relative viability ([1]; first compound 2.53 µM): 0.119 | relative viability ([1]; first compound 8 µM): 0.133 | relative viability ([2]; first compound 0.253 µM): 0.355 | relative viability ([2]; first compound 0.8 µM): 0.345 | relative viability ([2]; first compound 2.53 µM): 0.387 | relative viability ([2]; first compound 8 µM): 0.357 | relative viability ([3]; first compound 0.253 µM): 0.296 | relative viability ([3]; first compound 0.8 µM): 0.275 | relative viability ([3]; first compound 2.53 µM): 0.321 | relative viability ([3]; first compound 8 µM): 0.26

NCI-H441
relative viability (Tosedostat + Palbociclib; first compound 0.02 µM): 0.188 | relative viability (Tosedostat + Palbociclib; first compound 0.06325 µM): 0.258 | relative viability (Tosedostat + Palbociclib; first compound 0.2 µM): 0.242 | relative viability (Tosedostat + Palbociclib; first compound 0.6325 µM): 0.23 | relative viability (Tosedostat + Palbociclib; first compound 2 µM): 0.186 | relative viability ([1]; first compound 0.253 µM): 0.206 | relative viability ([1]; first compound 0.8 µM): 0.257 | relative viability ([1]; first compound 2.53 µM): 0.282 | relative viability ([1]; first compound 8 µM): 0.217 | relative viability ([2]; first compound 0.253 µM): 0.504 | relative viability ([2]; first compound 0.8 µM): 0.423 | relative viability ([2]; first compound 2.53 µM): 0.389 | relative viability ([2]; first compound 8 µM): 0.389 | relative viability ([3]; first compound 0.253 µM): 0.355 | relative viability ([3]; first compound 0.8 µM): 0.353 | relative viability ([3]; first compound 2.53 µM): 0.349 | relative viability ([3]; first compound 8 µM): 0.383

NCI-H460
relative viability (Tosedostat + Palbociclib; first compound 0.02 µM): 0.192 | relative viability (Tosedostat + Palbociclib; first compound 0.06325 µM): 0.203 | relative viability (Tosedostat + Palbociclib; first compound 0.2 µM): 0.11 | relative viability (Tosedostat + Palbociclib; first compound 0.6325 µM): 0.146 | relative viability (Tosedostat + Palbociclib; first compound 2 µM): 0.128 | relative viability ([1]; first compound 0.253 µM): 0.0613 | relative viability ([1]; first compound 0.8 µM): 0.0812 | relative viability ([1]; first compound 2.53 µM): 0.0833 | relative viability ([1]; first compound 8 µM): 0.0883 | relative viability ([2]; first compound 0.253 µM): 0.24 | relative viability ([2]; first compound 0.8 µM): 0.329 | relative viability ([2]; first compound 2.53 µM): 0.232 | relative viability ([2]; first compound 8 µM): 0.221 | relative viability ([3]; first compound 0.253 µM): 0.15 | relative viability ([3]; first compound 0.8 µM): 0.155 | relative viability ([3]; first compound 2.53 µM): 0.199 | relative viability ([3]; first compound 8 µM): 0.198

NCI-H522
relative viability (Tosedostat + Palbociclib; first compound 0.02 µM): 0.964 | relative viability (Tosedostat + Palbociclib; first compound 0.06325 µM): 0.845 | relative viability (Tosedostat + Palbociclib; first compound 0.2 µM): 1.02 | relative viability (Tosedostat + Palbociclib; first compound 0.6325 µM): 1.17 | relative viability (Tosedostat + Palbociclib; first compound 2 µM): 0.945 | relative viability ([1]; first compound 0.253 µM): 1.1 | relative viability ([1]; first compound 0.8 µM): 1.01 | relative viability ([1]; first compound 2.53 µM): 0.65 | relative viability ([1]; first compound 8 µM): 1.05 | relative viability ([3]; first compound 0.253 µM): 0.694 | relative viability ([3]; first compound 0.8 µM): 0.566 | relative viability ([3]; first compound 2.53 µM): 0.664 | relative viability ([3]; first compound 8 µM): 0.686

NCI-H596
relative viability ([2]; first compound 0.8 µM): 0.352 | relative viability ([2]; first compound 2.53 µM): 0.366 | relative viability ([2]; first compound 8 µM): 0.363 | relative viability ([3]; first compound 0.253 µM): 0.541 | relative viability ([3]; first compound 0.8 µM): 0.732 | relative viability ([3]; first compound 2.53 µM): 0.752 | relative viability ([3]; first compound 8 µM): 0.615

NCI-H1299
relative viability ([2]; first compound 0.253 µM): 0.698 | relative viability ([2]; first compound 0.8 µM): 0.611 | relative viability ([2]; first compound 2.53 µM): 0.71 | relative viability ([2]; first compound 8 µM): 0.713 | relative viability ([3]; first compound 0.253 µM): 0.741 | relative viability ([3]; first compound 0.8 µM): 0.722 | relative viability ([3]; first compound 2.53 µM): 0.717 | relative viability ([3]; first compound 8 µM): 0.664

NCI-H1563
relative viability ([2]; first compound 0.253 µM): 0.625 | relative viability ([2]; first compound 0.8 µM): 0.694 | relative viability ([2]; first compound 2.53 µM): 0.659 | relative viability ([2]; first compound 8 µM): 0.633

NCI-H1648
relative viability (Tosedostat + Palbociclib; first compound 0.02 µM): 0.251 | relative viability (Tosedostat + Palbociclib; first compound 0.06325 µM): 0.264 | relative viability (Tosedostat + Palbociclib; first compound 0.2 µM): 0.263 | relative viability (Tosedostat + Palbociclib; first compound 0.6325 µM): 0.313 | relative viability (Tosedostat + Palbociclib; first compound 2 µM): 0.248 | relative viability ([1]; first compound 0.253 µM): 0.258 | relative viability ([1]; first compound 0.8 µM): 0.278 | relative viability ([1]; first compound 2.53 µM): 0.263 | relative viability ([1]; first compound 8 µM): 0.244 | relative viability ([3]; first compound 0.253 µM): 0.459 | relative viability ([3]; first compound 0.8 µM): 0.574 | relative viability ([3]; first compound 2.53 µM): 0.406 | relative viability ([3]; first compound 8 µM): 0.618

NCI-H1703
relative viability ([2]; first compound 0.253 µM): 0.226 | relative viability ([2]; first compound 0.8 µM): 0.265 | relative viability ([2]; first compound 2.53 µM): 0.258 | relative viability ([2]; first compound 8 µM): 0.279 | relative viability ([3]; first compound 0.253 µM): 0.341 | relative viability ([3]; first compound 0.8 µM): 0.438 | relative viability ([3]; first compound 2.53 µM): 0.448 | relative viability ([3]; first compound 8 µM): 0.609

NCI-H2342
relative viability (Tosedostat + Palbociclib; first compound 0.02 µM): 0.536 | relative viability (Tosedostat + Palbociclib; first compound 0.06325 µM): 0.507 | relative viability (Tosedostat + Palbociclib; first compound 0.2 µM): 0.578 | relative viability (Tosedostat + Palbociclib; first compound 0.6325 µM): 0.524 | relative viability (Tosedostat + Palbociclib; first compound 2 µM): 0.61 | relative viability ([1]; first compound 0.253 µM): 0.478 | relative viability ([1]; first compound 0.8 µM): 0.491 | relative viability ([1]; first compound 2.53 µM): 0.458 | relative viability ([1]; first compound 8 µM): 0.417 | relative viability ([3]; first compound 0.253 µM): 0.305 | relative viability ([3]; first compound 0.8 µM): 0.309 | relative viability ([3]; first compound 2.53 µM): 0.369 | relative viability ([3]; first compound 8 µM): 0.363

SW 900
relative viability (Tosedostat + Palbociclib; first compound 0.02 µM): 0.446 | relative viability (Tosedostat + Palbociclib; first compound 0.06325 µM): 0.462 | relative viability (Tosedostat + Palbociclib; first compound 0.2 µM): 0.479 | relative viability (Tosedostat + Palbociclib; first compound 0.6325 µM): 0.479 | relative viability (Tosedostat + Palbociclib; first compound 2 µM): 0.466 | relative viability ([1]; first compound 0.8 µM): 0.574 | relative viability ([1]; first compound 2.53 µM): 0.504 | relative viability ([1]; first compound 8 µM): 0.463 | relative viability ([3]; first compound 0.8 µM): 0.801 | relative viability ([3]; first compound 2.53 µM): 0.776 | relative viability ([3]; first compound 8 µM): 0.802
